# According to ChEMBL document CHEMBL1201862, “PubChem BioAssay data set” (2004):
#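 In this assay, cells in 96-well plates receive the compound at five concentrations for 48 hours. Endpoints are linearly interpolated between the surrounding concentrations. Here, GI50 denotes the concentration required for 50% inhibition of growth.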 Calls of active or inactive are those of the source. Cut-off read from the data, not from the text of the source: active = GI50 up to about 1.1 µM and inactive = higher.
# How the values were obtained:
# Assay in all cases: DTP human tumour cell line panel, 48 h
# [1] = test system: 786-0
# [2] = test system: A549
# [3] = test system: ACHN
# [4] = test system: CAKI-1
# [5] = test system: CCRF-CEM
# [6] = test system: COLO 205
# [7] = test system: DLD-1
# [8] = test system: DMS-114
# [9] = test system: EKVX
# [10] = test system: HCC 2998
# [11] = test system: HCT-116
# [12] = test system: HCT-15
# [13] = test system: HL-60
# [14] = test system: HOP-18
# [15] = test system: HOP-62
# [16] = test system: HOP-92
# [17] = test system: HT-29
# [18] = test system: IGROV-1
# [19] = test system: K562
# [20] = test system: KM-20L2
# [21] = test system: KM12
# [22] = test system: LOX IMVI
# [23] = test system: LXFL 529
# [24] = test system: M14
# [25] = test system: M19-MEL
# [26] = test system: MOLT-4
# [27] = test system: Malme-3M
# [28] = test system: NCI-H460
# [29] = test system: NCI-H522
# [30] = test system: OVCAR-4
# [31] = test system: OVCAR-5
# [32] = test system: OVCAR-8
# [33] = test system: RPMI-8226
# [34] = test system: RXF 393
# [35] = test system: RXF 631
# [36] = test system: SF-268
# [37] = test system: SF-295
# [38] = test system: SF-539
# [39] = test system: SK-MEL-28
# [40] = test system: SK-MEL-2
# [41] = test system: SK-MEL-5
# [42] = test system: SK-OV-3
# [43] = test system: SN12C
# [44] = test system: SNB-19
# [45] = test system: SNB-75
# [46] = test system: SNB-78
# [47] = test system: SR
# [48] = test system: SW-620
# [49] = test system: U-251
# [50] = test system: UACC-257
# [51] = test system: UACC-62
# [52] = test system: UO-31
# [53] = test system: XF498
# [54] = test system: A498
# [55] = test system: DMS-273
# [56] = test system: NCI-H226
# [57] = test system: NCI-H23
# [58] = test system: OVCAR-3
# [59] = test system: TK-10
smiles,measurement,setting,value
CSc1ccc(C2OC(=O)c3ccccc32)c2ccccc12 (centres undefined),GI50,[1],> 100 µM (inactive)
same,GI50,[2],81.3 µM (inactive)
same,GI50,[3],88.5 µM (inactive)
same,GI50,[4],80.7 µM (inactive)
same,GI50,[5],54.8 µM (inactive)
same,GI50,[6],> 100 µM (inactive)
same,GI50,[7],86.5 µM (inactive)
same,GI50,[8],74.3 µM (inactive)
same,GI50,[9],> 100 µM (inactive)
same,GI50,[10],70.8 µM (inactive)
same,GI50,[11],87.5 µM (inactive)
same,GI50,[12],97.7 µM
same,GI50,[13],61.2 µM (inactive)
same,GI50,[14],40.6 µM (inactive)
same,GI50,[15],> 100 µM (inactive)
same,GI50,[16],49 µM (inactive)
same,GI50,[17],52.5 µM (inactive)
same,GI50,[18],98.9 µM (inactive)
same,GI50,[19],31 µM (inactive)
same,GI50,[20],67 µM (inactive)
same,GI50,[21],78 µM (inactive)
same,GI50,[22],88.3 µM (inactive)
same,GI50,[23],58.3 µM (inactive)
same,GI50,[24],> 100 µM (inactive)
same,GI50,[25],> 100 µM (inactive)
same,GI50,[26],32.3 µM (inactive)
same,GI50,[27],> 100 µM (inactive)
same,GI50,[28],> 100 µM (inactive)
same,GI50,[29],51.8 µM (inactive)
same,GI50,[30],70.5 µM (inactive)
same,GI50,[31],> 100 µM (inactive)
same,GI50,[32],> 100 µM (inactive)
same,GI50,[33],47.2 µM (inactive)
same,GI50,[34],> 100 µM (inactive)
same,GI50,[35],> 100 µM (inactive)
same,GI50,[36],> 100 µM (inactive)
same,GI50,[37],> 100 µM (inactive)
same,GI50,[38],> 100 µM (inactive)
same,GI50,[39],> 100 µM (inactive)
same,GI50,[40],> 100 µM (inactive)
same,GI50,[41],58.2 µM (inactive)
same,GI50,[42],> 100 µM (inactive)
same,GI50,[43],> 100 µM (inactive)
same,GI50,[44],> 100 µM (inactive)
same,GI50,[45],14.2 µM (inactive)
same,GI50,[46],46.5 µM (inactive)
same,GI50,[47],97.1 µM (inactive)
same,GI50,[48],> 100 µM (inactive)
same,GI50,[49],37.3 µM (inactive)
same,GI50,[50],> 100 µM (inactive)
same,GI50,[51],54.3 µM (inactive)
same,GI50,[52],39.7 µM (inactive)
same,GI50,[53],61.8 µM (inactive)
CC(=O)NC1C(OCc2ccccc2)OC(COC(=O)CCCCCNc2ccc([N+](=O)[O-])c3[nH]c4ccc(O)cc4c(=O)c23)C(O)C1OC(C)C(=O)N[C@@H](C)C(=O)N[C@H](CCC(=O)OCc1ccccc1)C(N)=O (some centres undefined),GI50,[1],1.86 µM (inactive)
same,GI50,[54],2.1 µM (inactive)
same,GI50,[2],1.26 µM (inactive)
same,GI50,[3],17.3 µM (inactive)
same,GI50,[4],1.56 µM (inactive)
same,GI50,[5],3.06 µM (inactive)
same,GI50,[6],1.55 µM (inactive)
same,GI50,[7],1.8 µM (inactive)
same,GI50,[55],1.49 µM (inactive)
same,GI50,[9],3.94 µM (inactive)
same,GI50,[10],3.25 µM (inactive)
same,GI50,[11],0.321 µM (active)
same,GI50,[12],0.745 µM
same,GI50,[13],2.77 µM (inactive)
same,GI50,[14],1.71 µM (inactive)
same,GI50,[15],5.9 µM (inactive)
same,GI50,[16],0.879 µM (active)
same,GI50,[17],0.401 µM (active)
same,GI50,[18],7.24 µM (inactive)
same,GI50,[19],1.49 µM (inactive)
same,GI50,[20],0.234 µM (active)
same,GI50,[21],1.39 µM (inactive)
same,GI50,[22],2.39 µM (inactive)
same,GI50,[23],1.5 µM (inactive)
same,GI50,[24],1.49 µM (inactive)
same,GI50,[25],5.68 µM (inactive)
same,GI50,[26],1.87 µM (inactive)
same,GI50,[27],1.32 µM (inactive)
same,GI50,[56],4.9 µM (inactive)
same,GI50,[57],1.35 µM (inactive)
same,GI50,[28],0.261 µM (active)
same,GI50,[29],1.6 µM (inactive)
same,GI50,[58],2.15 µM (inactive)
same,GI50,[30],3.34 µM (inactive)
same,GI50,[31],1.06 µM (active)
same,GI50,[32],1.64 µM (inactive)
same,GI50,[33],0.506 µM (active)
same,GI50,[34],1.6 µM (inactive)
same,GI50,[35],0.759 µM (active)
same,GI50,[36],2.31 µM (inactive)
same,GI50,[37],3.08 µM (inactive)
same,GI50,[38],3.4 µM (inactive)
same,GI50,[39],2.69 µM (inactive)
same,GI50,[40],1.95 µM (inactive)
same,GI50,[41],8.53 µM (inactive)
same,GI50,[42],2.99 µM (inactive)
same,GI50,[43],6.59 µM (inactive)
same,GI50,[44],3 µM (inactive)
same,GI50,[45],4.13 µM (inactive)
same,GI50,[46],3.16 µM (inactive)
same,GI50,[47],0.522 µM (active)
same,GI50,[48],0.465 µM (active)
same,GI50,[59],3.06 µM (inactive)
same,GI50,[49],2.45 µM (inactive)
same,GI50,[50],2.45 µM (inactive)
same,GI50,[51],1.77 µM (inactive)
